Measurements as given in patent US9029414B2, “Triterpenoid compounds and methods of use thereof” (Biotechnology Research Corporation, priority 2008, dated 2015).

Tests used:
EP2 receptor = EP2 receptor (Homo sapiens, UniProt P43116); experiment: Radioligand competition binding assay, EP2; conditions: EP2, target PGE2; compound at 10 μM in duplicate; read-out: % inhibition of control specific binding
Procedure: (§1) DA001 was further evaluated against 32 receptor binding assays. Radioligand competition assays were conducted whereby DA001 was tested at one concentration (10 uM) in duplicate. […] It could compete with the radioligand [^3H] PGE2 binding at the EP1 and EP4 receptors, and weakly competed with the EP2 and FP receptors.
(§2) To determine the targets of DA compounds, the compound was assessed in binding assays for the family of prostanoid receptors. Both compounds were tested at a single concentration (10 μM) in duplicate. DA001 and DA021 inhibit the ligand binding of prostaglandin E2 receptors EP1, EP2 and EP4 and moderately to prostaglandin (PGF) to its receptor (FP), but not prostaglandin I (PGI2), thromoboxane A and prostaglandin D2 to their receptors.

FP receptor = FP receptor (Homo sapiens, UniProt P43088); experiment: Radioligand competition binding assay, FP; conditions: target PGF, compound at 10 μM in duplicate, read-out: % inhibition of control specific binding
FP receptor, sequence (P43088 whole entry): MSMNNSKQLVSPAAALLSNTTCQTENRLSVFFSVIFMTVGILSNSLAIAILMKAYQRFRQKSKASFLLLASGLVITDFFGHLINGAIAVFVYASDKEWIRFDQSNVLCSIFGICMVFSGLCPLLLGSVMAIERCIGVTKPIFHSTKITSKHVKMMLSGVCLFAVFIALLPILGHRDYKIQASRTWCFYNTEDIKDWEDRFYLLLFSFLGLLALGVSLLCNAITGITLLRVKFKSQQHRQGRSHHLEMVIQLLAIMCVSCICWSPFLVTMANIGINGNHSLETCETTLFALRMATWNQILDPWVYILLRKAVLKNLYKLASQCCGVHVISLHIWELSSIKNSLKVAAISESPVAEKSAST
Procedure: as §1, §2

EP1 receptor = target: T1, EP1 receptor (Homo sapiens, UniProt P34995); experiment: Cellular receptor functional assay (cAMP), EP1; format: cell-based; design: expressed in transfected cells; host or cells: CHO cells; conditions: for Antagonist effect, cAMP measurement: in presence of PGE2
T1 sequence (P34995 1-402): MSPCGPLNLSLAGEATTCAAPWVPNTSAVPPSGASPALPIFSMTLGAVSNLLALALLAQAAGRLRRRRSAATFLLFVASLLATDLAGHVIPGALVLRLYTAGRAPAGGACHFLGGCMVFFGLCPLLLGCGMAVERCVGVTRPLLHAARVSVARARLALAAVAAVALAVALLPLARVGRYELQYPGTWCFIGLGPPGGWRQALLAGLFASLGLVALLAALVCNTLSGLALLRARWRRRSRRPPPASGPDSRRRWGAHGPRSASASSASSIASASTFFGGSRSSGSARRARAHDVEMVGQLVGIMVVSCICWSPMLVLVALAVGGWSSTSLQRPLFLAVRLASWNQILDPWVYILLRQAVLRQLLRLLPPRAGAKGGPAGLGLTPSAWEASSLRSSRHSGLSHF
Procedure: To determine whether the inhibitory effect of DA001 on the ligand binding to EP receptors results from agonist or antagonist activity, DA001 was evaluated at a single concentration (10 μM) on cellular-specific receptor functional assays. Upon ligand binding, the EP receptors are activated which leads to an increase in intracellular cyclic AMP.
DA001 (10 μM) was subjected to ligand binding assay with the human EP1 or EP4 receptor over-expressing CHO cells. Results are expressed as a percent of control specific agonist response [100-(measured specific response/control specific agonist response)×100] obtained in the presence of DA001.
DA021 inhibits PGE2 ligand binding to EP1, EP2 and EP4 receptors. To determine whether the inhibitory effect is due to agonist or antagonist activity, DA021 was evaluated and compared at 1 concentration (30 uM) in cellular assays assessing receptor function. Upon ligand binding, the EP receptors are activated which leads to an increase in intracellular cyclic AMP.

EP2 receptor, sequence (P43116 whole entry): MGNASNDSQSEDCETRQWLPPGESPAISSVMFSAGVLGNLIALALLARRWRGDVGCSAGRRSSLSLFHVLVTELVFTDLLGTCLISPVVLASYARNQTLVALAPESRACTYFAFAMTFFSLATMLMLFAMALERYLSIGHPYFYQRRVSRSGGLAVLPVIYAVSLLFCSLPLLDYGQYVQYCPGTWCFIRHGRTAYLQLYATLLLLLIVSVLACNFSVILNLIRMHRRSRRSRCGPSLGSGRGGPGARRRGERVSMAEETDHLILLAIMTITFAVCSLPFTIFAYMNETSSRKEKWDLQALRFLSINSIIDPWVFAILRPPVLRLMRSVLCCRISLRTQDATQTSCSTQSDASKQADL

C=C(C)[C@@H]1CC[C@]2(/C=N/O)CC[C@]3(C)C(CCC4[C@@]5(C)CCC(=O)[C@@](C)(CO)[C@@H]5CC[C@]43C)C12 (some centres unmarked) [DA021]
inhibition at 10 µM (EP2 receptor): 42%
inhibition at 10 µM (FP receptor): 52%
Agonist effect, cAMP measurement (EP1 receptor; 30 uM): 9
Antagonist effect, cAMP measurement (EP1 receptor; 30 uM): 87

C=C(C)[C@@H]1CC[C@]2(C(=O)O)CC[C@]3(C)C(CC[C@@H]4[C@@]5(C)CC[C@H](O[C@@H]6OC[C@H](O)[C@H](O)[C@H]6O[C@@H]6O[C@@H](C)[C@H](O)[C@@H](O)[C@H]6O)[C@@](C)(CO)[C@@H]5CC[C@]43C)[C@@H]12 (stereo partly drawn) [DA001, 3-O-[α-L-rhamnopyranosyl-(1→2)-α-L-arabinopyranosyl]-3,23-dihydroxy-20(29)-lupen-28-oic acid]
inhibition at 10 µM (EP2 receptor): 31%
inhibition at 10 µM (FP receptor): 27%
Antagonist effect, cAMP measurement (EP1 receptor; 10 μM): 38%
Agonist effect, cAMP measurement (EP1 receptor; 10 μM, percent of control specific agonist response): 8.1%
